Data taken from US12227495B2, “Herbicidal compounds” (SYNGENTA CROP PROTECTION AG, priority 2018, dated 2025).

How the values were obtained:
Assay type in all cases: in vivo
[1] = test system: Amaranthus retoflexus (AMARE); experiment: Post-emergence herbicide test, glasshouse, percentage damage; conditions: 1000 g/ha, evaluated after 13 days
Outline: (§1)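 Pots of standard soil were sown and kept in a glasshouse at 24/16 °C day/night, 14 h light, 65% humidity; plants were sprayed one day after sowing (pre-emergence) or after 8 days (post-emergence) at 500 g/ha unless otherwise stated. Damage was scored after 13 days on a five-point scale (5=81-100%; 1=0-20%).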

[2] = test system: Echinochloa crus-galli (ECHCG); experiment: as above; conditions: 1000 g/ha, evaluated after 13 days
Outline: as §1

Lolium perenne (LOLPE) [3] = experiment: as above; conditions: 1000 g/ha, evaluated after 13 days
Outline: as §1

Solanum nigrum (SOLNI) [4] = experiment: as above; conditions: 1000 g/ha, evaluated after 13 days
Outline: as §1

[5] = test system: Ipomoea hederacea (IPOHE); experiment: as above; conditions: 1000 g/ha, evaluated after 13 days
Outline: as §1

Setaria faberi (SETFA) [6] = experiment: as above; conditions: 1000 g/ha, evaluated after 13 days
Outline: as §1

[7] = test system: Amaranthus retoflexus (AMARE); experiment: Pre-emergence herbicide test, glasshouse, percentage damage; conditions: rate 1000 g/ha, evaluated after 13 days
Outline: as §1

[8] = test system: Echinochloa crus-galli (ECHCG); experiment: as above; conditions: rate 1000 g/ha, evaluated after 13 days
Outline: as §1

Lolium perenne (LOLPE) [9] = experiment: as above; conditions: rate 1000 g/ha, evaluated after 13 days
Outline: as §1

Solanum nigrum (SOLNI) [10] = experiment: as above; conditions: rate 1000 g/ha, evaluated after 13 days
Outline: as §1

[11] = test system: Ipomoea hederacea (IPOHE); experiment: as above; conditions: rate 1000 g/ha, evaluated after 13 days
Outline: as §1

Setaria faberi (SETFA) [12] = experiment: as above; conditions: rate 1000 g/ha, evaluated after 13 days
Outline: as §1

Structure (SMILES)	percentage damage caused to the plant, AMARE [1]	percentage damage caused to the plant, ECHCG [2]	percentage damage caused to the plant, LOLPE (Lolium perenne (LOLPE) [3])	percentage damage caused to the plant, SOLNI (Solanum nigrum (SOLNI) [4])	percentage damage caused to the plant, IPOHE [5]	percentage damage caused to the plant, SETFA (Setaria faberi (SETFA) [6])	Pre-emergence Test AMARE percentage damage (five point scale) [7]	Pre-emergence Test ECHCG percentage damage (five point scale) [8]	Pre-emergence Test LOLPE percentage damage (five point scale) (Lolium perenne (LOLPE) [9])	Pre-emergence Test SOLNI percentage damage (five point scale) (Solanum nigrum (SOLNI) [10])	Pre-emergence Test IPOHE percentage damage (five point scale) [11]	Pre-emergence Test SETFA percentage damage (five point scale) (Setaria faberi (SETFA) [12])
FC(F)c1cc(-c2c(Br)cccc2Oc2cc(Cl)ccn2)on1 [Compound A86]	4 (4=61-80%)	4 (4=61-80%)	4 (4=61-80%)	4 (4=61-80%)	4 (4=61-80%)	4 (4=61-80%)	4 (4=61-80%)	5 (5=81-100%)	4 (4=61-80%)	2 (2=21-40%)	1 (1=0-20%)	5 (5=81-100%)
N#Cc1ccnc(Oc2cccc(Br)c2-c2cc(C(F)F)no2)c1 [Compound A87]	4 (4=61-80%)	3 (3=41-60%)	3 (3=41-60%)	4 (4=61-80%)	3 (3=41-60%)	5 (5=81-100%)	4 (4=61-80%)	4 (4=61-80%)	4 (4=61-80%)	3 (3=41-60%)	1 (1=0-20%)	5 (5=81-100%)
O=[N+]([O-])c1ccc(Oc2cccc(Br)c2-c2cc(C(F)F)no2)nc1 [Compound A88]	5 (5=81-100%)	4 (4=61-80%)	3 (3=41-60%)	4 (4=61-80%)	2 (2=21-40%)	4 (4=61-80%)	5 (5=81-100%)	5 (5=81-100%)	4 (4=61-80%)	4 (4=61-80%)	1 (1=0-20%)	5 (5=81-100%)
FC(F)c1cc(-c2c(Br)cccc2Oc2ncc(Cl)cc2Cl)on1 [Compound A89]	5 (5=81-100%)	4 (4=61-80%)	3 (3=41-60%)	4 (4=61-80%)	4 (4=61-80%)	5 (5=81-100%)	4 (4=61-80%)	4 (4=61-80%)	2 (2=21-40%)	2 (2=21-40%)	3 (3=41-60%)	4 (4=61-80%)
FC(F)c1cc(-c2c(Br)cccc2Oc2ccc(C(F)(F)F)cn2)on1 [Compound A90]	5 (5=81-100%)	4 (4=61-80%)	4 (4=61-80%)	4 (4=61-80%)	4 (4=61-80%)	5 (5=81-100%)	4 (4=61-80%)	5 (5=81-100%)	5 (5=81-100%)	4 (4=61-80%)	3 (3=41-60%)	5 (5=81-100%)
N#Cc1ccnc(Oc2cccc(Cl)c2-c2cc(C(F)F)no2)c1 [Compound A91]	4 (4=61-80%)	4 (4=61-80%)	4 (4=61-80%)	4 (4=61-80%)	4 (4=61-80%)	4 (4=61-80%)	4 (4=61-80%)	5 (5=81-100%)	4 (4=61-80%)	3 (3=41-60%)	4 (4=61-80%)	5 (5=81-100%)
FC(F)c1cc(-c2c(Cl)cccc2Oc2cc(Cl)ccn2)on1 [Compound A92]	4 (4=61-80%)	4 (4=61-80%)	4 (4=61-80%)	4 (4=61-80%)	4 (4=61-80%)	4 (4=61-80%)	4 (4=61-80%)	1 (1=0-20%)	5 (5=81-100%)	2 (2=21-40%)	4 (4=61-80%)	5 (5=81-100%)
Fc1cc(Cl)cnc1Oc1c(F)cccc1-c1cc(C(F)F)no1 [Compound A93]	5 (5=81-100%)	4 (4=61-80%)	3 (3=41-60%)	3 (3=41-60%)	3 (3=41-60%)	5 (5=81-100%)	4 (4=61-80%)	4 (4=61-80%)	3 (3=41-60%)	4 (4=61-80%)	3 (3=41-60%)	4 (4=61-80%)
Cc1cccc(-c2cc(C(F)F)no2)c1Oc1ncc(Cl)cc1F [Compound A94]	4 (4=61-80%)	2 (2=21-40%)	2 (2=21-40%)	4 (4=61-80%)	1 (1=0-20%)	3 (3=41-60%)	4 (4=61-80%)	3 (3=41-60%)	2 (2=21-40%)	2 (2=21-40%)	1 (1=0-20%)	2 (2=21-40%)
Fc1cc(Cl)cnc1Oc1c(Cl)cccc1-c1cc(C(F)F)no1 [Compound A95]	4 (4=61-80%)	3 (3=41-60%)	3 (3=41-60%)	4 (4=61-80%)	1 (1=0-20%)	4 (4=61-80%)	4 (4=61-80%)	4 (4=61-80%)	1 (1=0-20%)	1 (1=0-20%)	1 (1=0-20%)	3 (3=41-60%)
